This note sets out measurements from patent US20170037028A1 (BAYER PHARMA AKTIENGESELLSCHAFT, priority 2013, published 2017).

The target of the first assay is T1, GLUT1 (Homo sapiens, UniProt P11166).
T1 sequence (P11166 1-492): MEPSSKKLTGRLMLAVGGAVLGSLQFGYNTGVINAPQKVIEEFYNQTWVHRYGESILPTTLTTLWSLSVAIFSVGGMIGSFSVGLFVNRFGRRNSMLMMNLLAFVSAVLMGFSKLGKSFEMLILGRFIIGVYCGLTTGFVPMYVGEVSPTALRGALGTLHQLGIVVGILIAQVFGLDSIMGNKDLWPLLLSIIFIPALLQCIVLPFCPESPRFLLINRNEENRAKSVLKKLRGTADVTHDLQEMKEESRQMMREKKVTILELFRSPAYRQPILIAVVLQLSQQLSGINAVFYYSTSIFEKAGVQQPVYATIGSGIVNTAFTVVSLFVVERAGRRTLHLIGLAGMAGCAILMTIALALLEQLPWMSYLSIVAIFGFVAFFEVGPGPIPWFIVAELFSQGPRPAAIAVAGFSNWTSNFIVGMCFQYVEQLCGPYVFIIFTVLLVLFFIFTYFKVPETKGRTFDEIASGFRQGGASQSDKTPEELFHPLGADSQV
Put plainly: Indirect measurement of GLUT1 activity by quantification of intracellular ATP levels (glucose induced ATP increase). Format: cell-based. More on the design: endogenous in cells; host or cells: DLD1 or CHO-K1. The note with it: DLD1 cells; 0.1 mM glucose, 1 μM Rotenone, 15 min; CellTiter-Glo ATP readout; IC50 values standardized to cytochalasin B IC50 values; read-out: IC50 regarding glucose induced ATP increase (GLUT1 inhibition). In short, it runs like this:
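DLD1 or CHO-K1 cells were starved overnight in glucose-free medium with 1% FCS, then combined with an oxidative phosphorylation inhibitor. GLUT1 activity was read as glucose-induced ATP increase, GLUT2 as fructose-induced. Intracellular ATP was quantified by CellTiter-Glo luminescence.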
(In general: Cellular ATP, detected with luciferase, serves as a proxy for viable cell number.)
For orientation: IC50 means the concentration needed to halve the response being measured. Take `Cc1c(NC(=O)c2cc(C(N)=O)nc3cc(F)cc(F)c23)c(C(F)(F)F)nn1Cc1ccc(C#N)cc1` [Example 243, N^4-[1-(4-cyanobenzyl)-5-methyl-3-(trifluoromethyl)-1H-pyrazol-4-yl]-5,7-difluoroquinoline-2,4-dicarboxamide]: the IC50 is 0.5 nM.

The assay is the same for the next values; noted with them: read-out: IC50 regarding glucose induced ATP increase (GLUT1 inhibition).
Turning to `Cc1c(NC(=O)c2cc(C(=O)NCCN3CCOCC3)nc3cc(F)ccc23)c(C(F)(F)F)nn1Cc1ccc(C#N)cc1` [Example 342, N^4-[1-(4-cyanobenzyl)-5-methyl-3-(trifluoromethyl)-1H-pyrazol-4-yl]-7-fluoro-N^2-[2-(morpholin-4-yl)ethyl]quinoline-2,4-dicarboxamide], the IC50 turned out to be 336 nM.

As for `Cc1nn(CC2CCN(S(=O)(=O)c3cccnc3)CC2)c(C)c1NC(=O)c1cc(C(N)=O)nc2ccccc12` [Example 1514], the half-inhibitory concentration (IC50) came out at 493 nM.

As for `COc1ccc(CCCn2nc(C)c(NC(=O)c3cc(OC)nc4ccccc34)c2C)cc1` [Example 1109], the IC50 was 54.2 nM.

Consider `Cc1cc2c(C(=O)Nc3c(C)nn(Cc4ccc(C#N)cc4)c3C)cc(C(N)=O)nc2cc1F` [Example 256, N^4-[1-(4-cyanobenzyl)-3,5-dimethyl-1H-pyrazol-4-yl]-7-fluoro-6-methylquinoline-2,4-dicarboxamide], for which the IC50 was 2.4 nM.

Consider `Cc1c(NC(=O)c2cc(C(N)=O)nc3cccc(F)c23)c(C(F)(F)F)nn1Cc1ccccc1OC(F)(F)F` [Example 1706], for which the concentration for half-maximal inhibition (IC50) amounted to 616 nM.

On to `Cc1nc2ccccc2c(C(=O)Nc2c(C)nn(Cc3ccc(F)cc3)c2C)c1C#N` [Example 1264], for which the IC50 is 2380 nM.

In the case of `Cc1c(NC(=O)c2cc(C(N)=O)nc3cccc(F)c23)c(C(F)(F)F)nn1Cc1ccc(F)cc1C#N` [Example 1656], the half-inhibitory concentration (IC50) is 12.5 nM.

In the case of `Cc1nn(Cc2ccccc2C#N)c(C)c1NC(=O)c1cc(C(N)=O)nc2ccccc12` [Example 232, N^4-[1-(2-cyanobenzyl)-3,5-dimethyl-1H-pyrazol-4-yl]quinoline-2,4-dicarboxamide], the IC50 was 7 nM.

Regarding `Cc1nn(Cc2ccc(F)c(F)c2)c(C)c1NC(=O)c1cc(C(N)=O)nc2cccc(F)c12` [Example 1471], the IC50 was 12.3 nM.

As to `Cc1c(NC(=O)c2cc(C(N)=O)nc3ccccc23)c(C(F)(F)F)nn1Cc1ccc(F)cc1` [Example 130, N^4-[1-(4-fluorobenzyl)-5-methyl-3-(trifluoromethyl)-1H-pyrazol-4-yl]quinoline-2,4-dicarboxamide], the IC50 worked out at 4.6 nM.

Regarding `Cc1nn(Cc2ccc(C(F)(F)F)cc2)c(C)c1NC(=O)c1cc(C(F)(F)F)nc2c(Cl)cc(Cl)cc12` [Example 1243], the IC50 is 1590 nM.

With `Cc1ccc(Cn2nc(C)c(NC(=O)c3cc(C(F)(F)F)nc4c(Cl)cc(Cl)cc34)c2C)cc1` [Example 31, 6,8-dichloro-N-[3,5-dimethyl-1-(4-methylbenzyl)-1H-pyrazol-4-yl]-2-(trifluoromethyl)quinoline-4-carboxamide], the IC50 is 20 nM.

In the case of `Cc1c(NC(=O)c2cc(C(N)=O)nc3cc(F)c(Cl)cc23)c(C(F)(F)F)nn1Cc1cc(F)ccc1C#N` [Example 1655], the IC50 stood at 238 nM.

Consider `Cc1nn(Cc2ccc(F)cc2)c(C(=O)NCCO)c1NC(=O)c1cc(C(F)(F)F)nc2ccc(Br)cc12` [Example 1219], for which the IC50 came out at 708 nM.

`COC(=O)c1coc(Cn2nc(C(F)(F)F)c(NC(=O)c3cc(C(N)=O)nc4cc(F)c(Cl)cc34)c2C)n1` [Example 1682]: the concentration for half-maximal inhibition (IC50) turned out to be 36.7 nM.

Take `CCc1nc(Cn2nc(C)c(NC(=O)c3cc(C(F)(F)F)nc4ccc(Br)cc34)c2C)no1` [Example 1499]: the IC50 was 13.4 nM.

`Cc1cccc(Cn2nc(C)c(NC(=O)c3cc(C(N)=O)nc4cccc(F)c34)c2C)c1` [Example 1475]: the half-maximal inhibitory concentration (IC50) was 8.4 nM.

Turning to `Cc1nn(Cc2ccc(C(=O)NCCCO)cc2)c(C)c1NC(=O)c1cc(C(F)(F)F)nc2ccc(Br)cc12` [Example 1051], the IC50 turned out to be 11.8 nM.

Take `Cc1c(NC(=O)c2cc(C(N)=O)nc3cc(F)c(Cl)cc23)c(C(F)(F)F)nn1Cc1ccc(C#N)cc1` [Example 213, 6-chloro-N^4-[1-(4-cyanobenzyl)-5-methyl-3-(trifluoromethyl)-1H-pyrazol-4-yl]-7-fluoroquinoline-2,4-dicarboxamide]: the IC50 was 0.7 nM.

`Cc1nn(Cc2ccc(C(=O)N3CCCC3)cc2)c(C)c1NC(=O)c1cc(C(F)(F)F)nc2ccc(Br)cc12` [Example 1033]: the IC50 is 4.2 nM.

As for `Cc1cc(C(=O)Nc2c(C)nn(Cc3ccc(F)cc3)c2C)c2cccc(Br)c2n1` [Example 53, 8-bromo-N-[1-(4-fluorobenzyl)-3,5-dimethyl-1H-pyrazol-4-yl]-2-methylquinoline-4-carboxamide], the half-maximal inhibitory concentration (IC50) amounted to 52.4 nM.

With `Cc1nn(Cc2ccc(C#N)cc2)c(C)c1NC(=O)c1cc(C(N)=O)nc2cccc(C)c12` [Example 257, N^4-[1-(4-cyanobenzyl)-3,5-dimethyl-1H-pyrazol-4-yl]-5-methylquinoline-2,4-dicarboxamide], the IC50 came to 2.4 nM.

In the case of `COc1cc(C(=O)Nc2c(C)nn(Cc3ccc(C#N)cc3F)c2C)c2ccccc2n1` [Example 1352], the IC50 came out at 35.1 nM.

With `Cc1nn(Cc2ccc(C#N)cc2)c(C)c1NC(=O)c1cc(N(C)C)nc2ccccc12` [Example 1092], the IC50 is 37.9 nM.

Consider `Cc1c(NC(=O)c2cc(C(N)=O)nc3ccccc23)c(C(F)(F)F)nn1Cc1cc(C2CC2)on1` [Example 1549], for which the IC50 stood at 13.6 nM.

Turning to `Cc1nn(Cc2cccc(OC(F)(F)F)c2)c(C)c1NC(=O)c1cc(C(N)=O)nc2cccc(F)c12` [Example 1587], the IC50 turned out to be 41.8 nM.

In the case of `CNC(=O)c1c(NC(=O)c2cc(C(N)=O)nc3ccccc23)c(C)nn1Cc1ccc(F)cc1` [Example 1258], the IC50 worked out at 2060 nM.

As for `Cc1nn(Cc2ccc(C#N)cc2)c(C)c1NC(=O)c1cc(C(N)=O)nc2cc(F)cc(F)c12` [Example 253, N^4-[1-(4-cyanobenzyl)-3,5-dimethyl-1H-pyrazol-4-yl]-5,7-difluoroquinoline-2,4-dicarboxamide], the half-inhibitory concentration (IC50) was 0.5 nM.

`Cc1nn(Cc2ccc(C(=O)NC[C@H](C)O)cc2)c(C)c1NC(=O)c1cc(C(F)(F)F)nc2ccc(Br)cc12` [Example 1046]: the IC50 worked out at 9.6 nM.

`Cc1nn(Cc2ccc(C(=O)NC[C@@H]3CCCO3)cc2)c(C)c1NC(=O)c1cc(C(F)(F)F)nc2ccc(Br)cc12` [Example 1164]: the IC50 came to 167 nM.

Take `Cc1nn(Cc2ccc(C(=O)Nc3cc[nH]n3)cc2)c(C)c1NC(=O)c1cc(C(F)(F)F)nc2ccc(Br)cc12` [Example 1055]: the IC50 came to 14.4 nM.

As to `COc1cc(C(=O)Nc2c(C)nn(Cc3ccc(OC(F)(F)F)cc3)c2C)c2ccccc2n1` [Example 23, N-{3,5-dimethyl-1-[4-(trifluoromethoxy)benzyl]-1H-pyrazol-4-yl}-2-methoxyquinoline-4-carboxamide], the IC50 was 15.4 nM.

For the compound `Cc1c(NC(=O)c2cc(C(N)=O)nc3cc(F)ccc23)c(C(F)(F)F)nn1Cc1ccc(C(F)(F)F)cc1` [Example 1590], the IC50 was 9.8 nM.

With `Cc1c(NC(=O)c2cc(C(N)=O)nc3cc(F)c(F)cc23)c(C(F)(F)F)nn1Cc1ccc(C#N)cc1F` [Example 304, N^4-[1-(4-cyano-2-fluorobenzyl)-5-methyl-3-(trifluoromethyl)-1H-pyrazol-4-yl]-6,7-difluoroquinoline-2,4-dicarboxamide], the IC50 was found to be 3.6 nM.

As to `COc1ccc(Cn2nc(C)c(NC(=O)c3cc(C(N)=O)nc4cc(F)ccc34)c2C)cc1` [Example 275, 7-fluoro-N^4-[1-(4-methoxybenzyl)-3,5-dimethyl-1H-pyrazol-4-yl]quinoline-2,4-dicarboxamide], the IC50 stood at 1.1 nM.

With `Cc1c(NC(=O)c2cc(C(N)=O)nc3cc(F)c(Cl)cc23)c(C(F)(F)F)nn1Cc1ccc(S(C)(=O)=O)cc1` [Example 1438], the IC50 is 3.1 nM.

With `Cc1nn(Cc2c(F)cccc2F)c(C)c1NC(=O)c1cc(C(N)=O)nc2cc(F)c(Cl)cc12` [Example 1634], the IC50 was 2.2 nM.

For the compound `Cc1nn(Cc2ccc(F)cc2)c(C)c1NC(=O)c1cc(C2CC2)nc2cccc(F)c12` [Example 46, 2-cyclopropyl-5-fluoro-N-[1-(4-fluorobenzyl)-3,5-dimethyl-1H-pyrazol-4-yl]quinoline-4-carboxamide], the IC50 was determined as 40 nM.

Turning to `Cc1nn(Cc2ccc(C(=O)NCc3cnn(C)c3)cc2)c(C)c1NC(=O)c1cc(C(F)(F)F)nc2ccc(Br)cc12` [Example 1154], the IC50 amounted to 139 nM.

Take `Cc1nn(Cc2cccc(OC(F)(F)F)c2)c(C)c1NC(=O)c1cc(C(F)(F)F)nc2ccc(Br)cc12` [Example 113, 6-bromo-N-{3,5-dimethyl-1-[3-(trifluoromethoxy)benzyl]-1H-pyrazol-4-yl}-2-(trifluoromethyl)quinoline-4-carboxamide]: the IC50 worked out at 813 nM.

For the compound `Cc1ccccc1Cn1nc(C)c(NC(=O)c2cc(C(F)(F)F)nc3ccc(Br)cc23)c1C` [Example 24, 6-bromo-N-[3,5-dimethyl-1-(2-methylbenzyl)-1H-pyrazol-4-yl]-2-(trifluoromethyl)quinoline-4-carboxamide], the concentration for half-maximal inhibition (IC50) was 15.5 nM.
